Results on six substances are retold here after paper PMC12516689, “Stimuli-Responsive Hydrogels from Liquid–Liquid Phase Separations of FUS-Derived Peptides” (ACS Applied Materials & Interfaces, 2025).

Series [1] in a line: Hydrogel formation, inverted test tube analysis. The format is physicochemical. The note with it: for Concentration at which self-supporting hydrogel is obtained: sonication. As to the method:
Peptide solutions were dissolved in PBS at concentrations varying from 2.0 μM to 2.0 mM. To allow a complete dissolution, samples were sonicated for 15 min. Hydrogels were prepared by adding PBS to the peptide powder to a final concentration of 2 or 3 wt %. After sonication, samples were stored at 4 °C overnight and the hydrogel formation was macroscopically evaluated through inverted test tube analyses.
Self-supporting hydrogels of L1-L2 and of L1-L2-L3 were obtained starting from a concentration of 2 wt % when 10 mM PBS was used in place of water (inverted test tube, Figure a). […] From a biomedical perspective, achieving gelation at lower peptide concentrations is highly desirable to minimize potential cytotoxicity and facilitate in vivo applications. […] This sequence, in comparison to the L1 and L2 motifs, features a higher content of glycine residues and a single tyrosine, while L1 and L2 each contain two. The different behavior of L3 might therefore arise from a reduced number of π–π stacking interactions, a known driving factor in the gelation process, or the higher entropic cost associated with glycine residues.

Series [2] is described as follows: Rheological studies of hydrogels as a function of temperature. The note with it: amplitude 0.1%, frequency 1 Hz; for G′ (storage modulus) upon cooling back to 4 °C / G′ (storage modulus) upon heating to 80 °C / G′ (storage modulus), initial value at 4 °C: 2 wt % hydrogel in PBS; for G′ (storage modulus) upon cooling back to 4 °C: after cooling ramp 80 to 4 °C; for G′ (storage modulus) upon heating to 80 °C: end of heating ramp 4 to 80 °C; for G′ (storage modulus), initial value at 4 °C: start of heating ramp 4 to 80 °C. The format is physicochemical. Here is the method:
Rheological measurements of freshly preformed hydrogels (1000 μL) were performed with a rotational controlled-stress Haake Mars 40 rheometer (Thermo Fisher, Germany) by using a 3.5 cm diameter flat-plate geometry (P35/TI) with a gap of 0.5 mm. The analyses were conducted at different temperatures increasing from 4 to 80 °C and then decreasing from 80 to 4 °C. Amplitude (γ) was set at 0.1% and Frequency 1 Hz. G′ (storage modulus) and G″ (loss modulus) are reported as a function of the temperature.
To study the mechanical behavior of the matrices, hydrogels from L1-L2-L3 and L1-L2 sequences were subjected to rheological measurements. The storage (G′) and loss (G″) moduli, two key parameters describing the viscoelastic behavior of materials, were studied as a function of the temperature. Measurements were conducted across the entire temperature range, increasing from 4 to 80 °C and subsequently decreasing from 80 to 4 °C. […] However, the heating/cooling process induced significant increase in the rigidity of both samples. […] For the L1-L2 sample, the initial values of G′ at these temperatures were 1 Pa at 4 °C, 32 Pa at 80 °C, and 7314 Pa upon cooling back at 4 °C. To enhance the hydrogel disaggregation response to temperature increase, we adopted a design strategy focused on incorporating disruptive elements into the peptide sequences. This approach stems from the insights that the L3 sequence has the potential to inhibit the aggregation of the multi-LARK peptides. Following this rationale, we initially synthesized a multi-LARK sequence made of L3-L2-L3 LCDs (Figure S13a).

Series [3] in a line: Hydrogel stability in contact with acidic and basic solutions. The class given is physicochemical. The note with it: preformed hydrogels, room temperature, macroscopically observed up to 7 days. Here is the method: To address the impact of the primary sequence on the hydrogel’s sensitivity to external stimuli, their mechanical behavior as a response to pH and temperature triggers was tested. Preformed L1-L2 and L1-L2-L3 hydrogels were put in contact with both acidic (pH 5) and basic (pH 10) solutions at room temperature and were macroscopically observed over time up to 7 days. […] This behavior can be rationalized considering that the presence of ionizable acidic or basic amino acids typically drives pH-responsive properties in peptide-based systems. In our case, the sequences contain only a single acidic residue (Asp, D), which is located within the linker region rather than in the LARKS domains considered to be responsible for driving the gelation process.

A short description of series [4]: Critical aggregation concentration (CAC) by intrinsic self-fluorescence. The note with it: 10 mM PBS pH 7.4, no external probe, excitation 310 nm, emission intensity at 407 or 417 nm vs concentration, break point, 20 °C. The class given is physicochemical. As to the method:
A Shimadzu RF-6000 (Kyoto, Japan) spectrofluorometer was used to perform fluorescence measurements. Samples were placed in a 10.0 mm × 5.00 mm quartz cell and the settings used for the measurement were excitation and emission bandwidths of 2.5 nm and temperature of 20 °C. The critical aggregation concentration (CAC) of the peptides was estimated through the evaluation of the self-fluorescence behavior of the peptides. After excitation at 310 nm, the intensity of the emission band at 407 or 417 nm was checked and plotted as a function of concentration. Spectra were also recorded in excitation mode.
The ability of the multi-LARKS to self-assemble was evaluated in physiological buffer conditions (10 mM PBS, pH 7.4). Critical aggregation concentrations (CACs), designated as the minimum concentrations at which they spontaneously self-assemble, were assessed in the absence of any external fluorescence probe and by detecting the nonaromatic intrinsic self-fluorescence at increasing peptide concentrations. […] All the multi-LARK sequences here studied presented a near-UV emission, with a maximum of excitation at 310 nm.
By plotting the fluorescence intensity at the maximum emission wavelength as a function of concentration, CAC values, calculated at the break point, resulted 128 μM, 236 μM, 153 μM and 175 μM for L1-L2-L3, L1-L2, L1-L3, and L2-L3, respectively (see Table S2). […]

The nature of series [5]: Aggregation kinetics followed by self-fluorescence in microplate reader. The format is physicochemical. The note with it: 2.0 mM peptide in PBS; λex 355 nm, emission 460 nm over 300 h; 96-well plate, orbital shake 200 rpm; triplicate. As to the method:
Aggregation kinetics of peptide samples at 2.0 mM were followed by using a FLUOstar Omega (BMG LABTECH) microplate reader. Aliquots of 100 μL of each sample were placed in wells of a 96-well plate and covered with an aluminum foil to avoid evaporation of the solvent. Experimental settings were: λex = 355 nm, gain 1000, bottom optic, orbital shake 200 rpm between readings. Emission intensity at 460 nm was recorded over 300 h and subtracted for the blank. Experiments were conducted in triplicate.
The aggregation kinetics of the four multi-LARK sequences were monitored using fluorescence experiments, by exploiting the photoemissive behavior of the peptides in the blue field. As the fluorescence emission of these sequences require the aggregation state, as shown by the analyses conducted in solution, it represents a convenient probe of the self-assembly process. Upon excitation at 355 nm of 2.0 mM peptide solutions, the emission at 460 nm was recorded across a 300 h period (Figure S9). By reporting the fluorescence intensity as a function of time, we observed consistent trends across the four multi-LARKS samples, characterized by three different kinetic phases. […] This lag-phase was followed by a linear increase of the fluorescence signal at 460 nm in a relatively short period for all the samples (between 5 and 30 h) except in the case of L1-L2, where this second phase was longer (∼80 h). […]

The conditions of series [6]: dissolved in water, overnight incubation at 4 °C; ref Eisenberg and co-workers; cited from earlier work.

As for “Ac-STGGYGGDTSYSSYGQSNGPSTGGYG-NH2 [L3-L2-L3]”, the Hydrogel formation result in series [1] (concentrations ranging from 2 to 5 wt %) is “unable to form hydrogels”.

For Ac-STGGYSGDTSYSSYGQS-NH2 [L1**-L2], the “Concentration at which self-supporting hydrogel is obtained” value in series [1] (10 mM PBS, overnight at 4 °C) is 3 wt %. Besides, the “Temperature at which hydrogel undergoes breakdown (unable to reform upon cooling)” value in series [2] (3 wt % hydrogel in PBS, heating 4 to 80 °C) was found to be 55 °C.

As to Ac-SYGGYSGDTSYSSYGQS-NH2 [L1*-L2], the “Concentration at which self-supporting hydrogel is obtained” value in series [1] (10 mM PBS, overnight at 4 °C) is on record as 2 wt %. In series [2], the “G′ (storage modulus) upon cooling back to 4 °C” value was found to be 154332 Pa; the “G′ (storage modulus) upon heating to 80 °C” value came to 497 Pa; the “G′ (storage modulus), initial value at 4 °C” value is recorded as 818 Pa.

In turn, Ac-SYSGYSGDTSYSSYGQS-NH2 [L1-L2] came in with an Emission maximum of aggregation-induced fluorescence of 400 nm. Also, the “Hydrogel stability to acidic (pH 5) and basic (pH 10) solutions” value in series [3] is given as “No significant variations”.

Regarding “Ac-SYSGYSGDTSYSSYGQSNGPSTGGYG-NH2 [L1-L2-L3]”, the “Critical aggregation concentration (CAC)” value in series [4] came out at 128 µM. In addition, in series [5], the “Lag-phase duration (constant fluorescence intensity) of aggregation kinetics” value was around 50 h. In addition, the “Concentration at which self-supporting hydrogel is obtained” value in series [1] (10 mM PBS, overnight at 4 °C) was at least 2 wt %. Besides, in series [2], the “G′ (storage modulus) upon cooling back to 4 °C” value stood at 75762 Pa; the “G′ (storage modulus) upon heating to 80 °C” value stood at 4708 Pa; the “G′ (storage modulus), initial value at 4 °C” value turned out to be 1967 Pa. Further, the “Hydrogel stability to acidic (pH 5) and basic (pH 10) solutions” value in series [3] is recorded as “No significant variations”. In addition, the “Concentration at which hydrogel forms in water” value in series [6] is listed as 5 wt %.

On to Ac-SYSGYSNGPSTGGYG-NH2 [L1-L3], for which, in series [4], the “Critical aggregation concentration (CAC)” value stood at 153 µM. The “Lag-phase duration (constant fluorescence intensity) of aggregation kinetics” value in series [5] was around 50 h. Besides, the Hydrogel formation entry in series [1] (10 mM PBS, overnight at 4 °C) is recorded as “no gel formation”.
